Patent US20090304823A1, “NUTRITIONAL COMPOSITIONS FOR PROMOTION OF BONE GROWTH AND MAINTENANCE OF BONE HEALTH AND METHODS REGARDING SAME” (NESTEC S.A., priority 2006, published 2009)

Key:
BMP-2 = BMP-2 gene reporter assay (high throughput screen); assay type: cell-based
Protocol: BMP-2 gene reporter assay (high throughput screen) (i) BMP-2 high throughput gene reporter assay of non-hydrolyzed MeOH/H2O extracts (1a) and corresponding glycosidase hydrolyzed extract in ethyl acetate (1b). Extracts were tested twice at concentrations of 1 to 100 μg/ml, diluted in culture medium from plant extract stocks prepared as 50 mg/ml in DMSO. (ii) Extracts positive in the BMP-2 screen were prepared de novo and screened again with dose-response to confirm as “hits”. (iii) BMP-2 testing of subfractionation of positives/hits and candidate pure compounds

osteoblast cells = assay: Alkaline phosphatase assay in osteoblast cells (osteoblast differentiation); assay type: cell-based
OPG/RANKL = assay: Osteoblast/osteoclast co-culture system, cytokine regulation; assay type: cell-based
Protocol: For example, at least 3 phenolics (e.g. eupafolin, carnosol, scutellarein) may contribute to the anabolic potential of the rosemary extract. Additional phenolics of rosemary include genkwanin, kaempferol, acacetin. The rosemary plant extracts and pure compounds were tested in an osteoblast/osteoclast co-culture system.

[1] = test system: neonatal murine calvarial bones; assay: Calvaria organ culture in vitro, bone formation; assay type: cell-based
Protocol: (v) Final injection in vivo of “hit” extract into mouse calvaria bones and monitoring of bone area and thickness. Extracts were assessed in a 4-day in vitro neonatal murine calvarial assay. Bones were incubated with the extracts for the entire 4 days.

[2] = test system: bovine articular cartilage explants; assay: Cytokine-induced collagen degradation in articular cartilage explants; assay type: cell-based; settings: 1 or 5 μM; FIG. 9C
Source text: (vii) Effects on cytokine-induced type II collagen degradation, MMP-mediated aggrecan degradation and aggrecanase-mediated degradation in bovine articular cartilage explants.
We investigated here whether 2 different rosemary extracts and carnosol, one of the main components of this extract, could inhibit the degradation of collagen and aggrecan in cultured explants of articular cartilage. Explants from healthy bovine articular cartilage were put in culture. However, such explants naturally display a very low catabolic activity which is not ideal to test the anti-catabolic activity of potential bioactives. To improve the sensitivity of the assay, the explants are cultured in presence of 2 pro-inflammatory cytokines, TNF-α and oncostatin known to act together as potent inducers of MMP and aggrecanase activities.

Osteopontin (OPN) mRNA = assay: OPN mRNA induction by real-time PCR in hPOBtert osteoblasts; assay type: cell-based, human; settings: hPOBtert cells, 48 h; FIG. 10
Protocol: Cell culture—HPOBTert osteoblasts were seeded on collagen-coated plates and grown in MEM Eagle α Modification medium supplemented with 10% fetal bovine serum, 1% L-glutamine and penicillin/streptomycin, 1 mM β-glycerolphosphate and 50 μg/ml ascorbic acid in a humidified atmosphere of 5% CO2, and 95% air at 37° C. When carnosol and inhibitors were added, an equivalent amount of Me2SO was used as a vehicle control. Analysis of mRNA levels by Real-Time PCR—Total cellular RNA was extracted using the NucleoSpin RNA II kit (Macherey-Nagel, Switzerland). Equal amounts (1 μg) of RNA from the different treatments were reverse-transcribed using the First Strand cDNA Synthesis kit for RT-PCR (Roche, Mannheim, Germany). For each sample, 2 μl 10× reaction buffer, 4 μl 25 mM MgCl2, 2 μl nucleotide mix, 2 μl random primers, 1 μl RNAse inhibitor and 0.4 μl AMV reverse transcriptase from the kit were added to the sample. The reverse transcriptase was performed at the following thermal cycling conditions (25° C. for 10 min, 42 C for 60 min, and 75° C. for 5 min) using the PTC-100TM Concept, Switzerland). Real-time Quantitative PCR—Quantitative PCR was performed in 25 μl in triplicates. This consisted of 12.5 μl of Taqman 2× Universal PCR Master Mix, 1.25 μl Assay-on-Demand primers and probes (Applied Biosystems, USA) and 6.25 μl RNAse free water. […]

NQO1 = NQO1 induction, immunoblot of hPOBtert cell extracts; assay type: cell-based, human; settings: hPOBtert cells; FIG. 11
Protocol: Preparation of cytoplasmic extracts—hPOBtert cells were washed two times with cold phosphate-buffered saline and harvested with lysis buffer (1% Triton X-100, 20 mM Tris/HCL pH 8, 137 mM Nacl, 10% Glycerol, 2 mM EDTA pH 8, and freshly added proteinase inhibitors: 1 mM phenylmethylsulfonylfluoride, 0.15 U/ml Aprotinin, 10 μg/ml Leupeptide and 10 μg/ml Pepstatin). The samples were centrifuged at 13000 rpm, 4° C. for 5 min and the supernatant transferred to a fresh tube. The protein concentration was determined using the BioRad protein assay. Approximately 50 μg of each sample were mixed with a suitable volume of sample buffer, denatured for 5 min at 95° C. together with 5 μl protein standard, chilled on ice, and loaded on a 10% ready gel, and submitted to immunoblot analysis using anti-NQO1 antibodies.
Immunoblotting—50 μg of protein cell lysate were resolved by SDS-PAGE. After electrophoresis, proteins were transferred to a PVDF membrane (Invitrogen) according to the manufacturer's protocol. Membranes probed for OPN and NQO1 were blocked and probed in 5% milk in Tris-buffered saline/Tween (20 mM Tris base, pH 7.6, 137 mM, 0.1% Tween 20). The blots were visualised by chemiluminescence development, Western blotting detection system (Amersham Biosciences).
Antibodies—The NQO1 (sc-16464)-specific antibodies were purchased from Santa Cruz Biotechnologies Inc (Santa Cruz, Calif.). […]

COc1ccc(-c2cc(=O)c3c(O)cc(O)cc3o2)cc1 [Acacetin]
BMP-2 induction (BMP-2; 5-10 μM): 3-5X
ALP activity induction (osteoblast cells; 5-10 μM): 2X

COc1c(O)cc2oc(-c3ccc(O)c(O)c3)cc(=O)c2c1O [Eupafolin]
BMP-2 induction (BMP-2; 2.5-10 μM): 3-8X
ALP activity induction (osteoblast cells; 5 μM): 2 X
ALP activity induction (osteoblast cells; 10 μM): 4 X
regulation of the key cytokines controlling bone remodelling, OPG/RANKL (OPG/RANKL): activity for regulation

O=c1cc(-c2ccc(O)cc2)oc2cc(O)c(O)c(O)c12 [IX, Scutellarein]
BMP-2 induction (BMP-2; 5, 10 μM): 3-4X
ALP activity induction (osteoblast cells; 10 μM): 2X

O=c1c(O)c(-c2ccc(O)cc2)oc2cc(O)cc(O)c12 [Kaempferol]
BMP-2 induction (BMP-2; 1-10 μM): 2.5X
ALP activity induction (osteoblast cells; 2.5-10 μM): 2-4X
Bone formation in organ culture ([1]; 10 μM): Slight at 10 μM

COc1cc(O)c2c(=O)cc(-c3ccc(O)cc3)oc2c1 [V, Genkwanin]
BMP-2 induction (BMP-2; 5 μM): 4X
ALP activity induction (osteoblast cells; 10 μM): 1.5X

CC(C)c1cc2c(c(O)c1O)[C@@]13CCCC(C)(C)[C@@H]1C[C@@H]2OC3=O [VII, Carnosol]
BMP-2 induction (BMP-2; 2.5-10 μM): 4.5-7X
BMP- Activity (BMP-2; compounds isolated from rosemary extract 2188): YES
ALP activity induction (osteoblast cells; 2.5-10 μM): 2X
Bone formation in organ culture ([1]; 2.5 μM): Slight BF for 2.5 μM
Bone formation in organ culture ([1]; 5, 10 μM): Good BF for 5, 10 μM
cytokine induced collagen degradation [2]: inhibited
OPN expression (OPN mRNA levels) (Osteopontin (OPN) mRNA): induce OPN expression dose-dependently
expression of the phase II enzyme NQO1 (NQO1): induces the expression
regulation of the key cytokines controlling bone remodelling, OPG/RANKL (OPG/RANKL): activity for regulation
